Reference: patent publication US6156493A, “Modified-affinity streptavidin” (priority 1997, dated 2000)
Read-outs that look alike come from different tables or passages of the source.

Experiments:
[1] = biological target: T1, Streptomyces avidinii core streptavidin variant W120F (Streptomyces avidinii, UniProt P22629, W144F); settings: tight-binding limit; 0.2 nM total biotin
T1 construct: core streptavidin, defined as residues 13-139 of the naturally occurring protein; made in house
Procedure: (§1) The free ligand was then separated from the protein-bound ligand by either Microcon-30 or Centriprep-30 centrigual ultrafiltration devices (Amicon, Inc.). Typically, 0.1-1 ml of the free ligand solution or the protein-ligand mixture was added to 18 ml liquid scintillation cocktail (Ecolume, ICN Biomedicals, Inc., Costa Mesa, Calif.) and assayed on a liquid scintillation counter (Beckman Instruments, Inc., Fullerton, Calif.). The Ka was determined from a nonlinear curve fit of the fraction of protein-bound ligand versus the free protein concentration.
(§2) This assay provides a useful estimate of the Ka when the affinities lie between 10^6 -10^9.

[2] = biological target: T1, Streptomyces avidinii core streptavidin variant W120F; test: Equilibrium biotin-binding enthalpy and heat capacity (isothermal titrating calorimetry)
Procedure: (§3) The equilbrium binding enthalpies, ΔH°, and the heat capacities, ΔCp°, have also been […] with the streptavidin mutants (Table II). Heat capacities were determined as generally described in Murphy et al., Proteins: Structure, Function and Genetics 15:113-120 (1993), incorporated herein by reference.
(§4) The determination of ΔGr .noteq. by transition state analysis and the independent estimation of ΔG^0 from affinity measurements allows the drawing of free energy profiles for WT streptavidin and the Trp to Phe mutants. Similarly, the enthalpic energy profiles can be drawn from the equilibrium biotin-binding enthalpy (ΔH^0), independently determined by isothermal titrating calorimetry measurements, and ΔHr .noteq. available from transition state analysis of the temperature-dependent protein-ligand dissociation kinetics. The virtue of this analysis is that is allows the free energy barriers responsible for the off-rates of the different mutants to be delineated in terms of alterations in the transition state and/or the biotin-bound ground state, and further partitions these free energy changes into enthalpic and entropic components. Upon comparison with the results for WT streptavidin, the thermodynamic effects of mutating specific residues can then be mapped, providing considerable insight into the structure and energetics of the transition state.

[3] = biological target: T2, Streptomyces avidinii core streptavidin variant W108F (Streptomyces avidinii, UniProt P22629, W132F); test: as above
T2 construct: core streptavidin, defined as residues 13-139 of the naturally occurring protein; made in house
T2 sequence (P22629 37-163 W132F): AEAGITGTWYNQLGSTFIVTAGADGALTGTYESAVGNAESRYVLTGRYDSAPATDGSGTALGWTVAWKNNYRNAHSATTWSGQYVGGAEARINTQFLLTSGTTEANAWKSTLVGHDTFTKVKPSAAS
Procedure: as §3, §4

[4] = biological target: T3, Streptomyces avidinii core streptavidin variant W79F (Streptomyces avidinii, UniProt P22629, W103F); test: as above
T3 construct: core streptavidin, defined as residues 13-139 of the naturally occurring protein; made in house
T3 sequence (P22629 37-163 W103F): as the sequence (P22629 37-163 W132F) above, with W67F, F96W counted along it
Procedure: as §3, §4

[5] = biological target: T4, Streptomyces avidinii core streptavidin, wild type (WT) (Streptomyces avidinii, UniProt P22629); test: as above
T4 construct: core streptavidin, defined as residues 13-139 of the naturally occurring protein; made in house
T4 sequence (P22629 37-163): as the sequence (P22629 37-163 W132F) above, with F96W counted along it
Procedure: as §3, §4

[6] = biological target: T5, Streptomyces avidinii core streptavidin variant W120A (Streptomyces avidinii, UniProt P22629, W144A); test: as above
T5 construct: core streptavidin, defined as residues 13-139 of the naturally occurring protein; made in house
T5 sequence (P22629 37-163 W144A): as the sequence (P22629 37-163 W132F) above, with F96W, W108A counted along it
Procedure: as §3, §4

[7] = biological target: T6, Streptomyces avidinii core streptavidin variant W79A (Streptomyces avidinii, UniProt P22629, W103A); test: as above
T6 construct: core streptavidin, defined as residues 13-139 of the naturally occurring protein; made in house
T6 sequence (P22629 37-163 W103A): as the sequence (P22629 37-163 W132F) above, with W67A, F96W counted along it
Procedure: as §3, §4

[8] = biological target: T4, Streptomyces avidinii core streptavidin, wild type (WT); test: Equilibrium binding of 3H-biotin (ultrafiltration spin-column assay); settings: tight-binding limit; 0.2 nM total biotin; isotherm identical to W120F
Procedure: as §1, §2

[9] = biological target: T1, Streptomyces avidinii core streptavidin variant W120F; test: Streptavidin-biotin dissociation rate (3H biotin, cold biotin chase, ultrafiltration) and transition state analysis; format: binding
Procedure: (§5) Fifty μl of the filtrate were mixed with 10 ml scintillation cocktail in triplicate and assayed for radioactivity in a liquid scintillation counter (LS-7000, Beckman Instruments, Fullerton, Calif.). […] Standard deviations were determined based on three independent measurements.

[10] = biological target: T2, Streptomyces avidinii core streptavidin variant W108F; test: as above; format: binding
Procedure: as §5

[11] = biological target: T3, Streptomyces avidinii core streptavidin variant W79F; test: as above; format: binding
Procedure: as §5

[12] = biological target: T4, Streptomyces avidinii core streptavidin, wild type (WT); test: as above; format: binding
Procedure: as §5

[13] = biological target: Streptomyces avidinii streptavidin, wild type (WT); test: Known Ka of ligand-WT streptavidin partners used for the analysis; format: binding; settings: pH 10.0; estimated from experimentally-determined value for iminobiotin/avidin
Description: Streptavidin, a protein produced by Streptomyces avidinii, forms a very strong and specific non-covalent complex with the water soluble vitamin biotin. […] See, Green, Adv. Prot. Chem. 29: 85-143 (1975).
Order of magnitude determinations of ΔKa for the mutants were estimated from the EC50, given the known Ka 's of some of these ligand-protein partners. […] These numbers are further supported by the independently determined biotin-binding affinities of the W79A and W120A mutants, which agree well with the ELISA estimates.

[14] = biological target: T5, Streptomyces avidinii core streptavidin variant W120A; test: Affinity of W120A for 2-iminobiotin; format: binding
[15] = biological target: Streptomyces avidinii core streptavidin Trp→Ala mutants (WxA: W79A, W108A, W120A); test: ELISA concentration-dependent binding to iminobiotin/BSA; settings: ligand iminobiotin/BSA; pH 8/10; lower bound
Procedure: (§6) ELISA Assays. […] 2-Iminobiotin conjugated to bovine serum albumin (iminobiotin/BSA) was synthesized by reacting a twenty-fold molar excess of 2-iminobiotin N-hydroxysuccinimide ester (sigma) with 100 mg BSA in 100 mM NaHCO3, pH 8.3 for 12 hr at 4° C. with end-over-end stirring, followed by dialysis and gel filtration (G-25, Pharmacia) to separate iminobiotin/BSA from unreacted 2-iminobiotin. […] The next day the microwell plates were incubated with 200 μl per well of blocking buffer at pH 8.0 or pH 10.0 (50 mM sodium phosphate, pH 8.0 or 50 mM Na2 CO3, pH 10.0/100 mM NaCl/0.5% (w/v) BSA/0.05% (v/v) Tween-20) for at least 2 hr at room temperature and then incubated in ten-fold serial dilutions of 100 μg/ml WT streptavidin or mutants (100 μl/well) for 2 hr at room temperature, rinsed with blocking buffer at pH 8.0 or pH 10.0 (200 μl/well), and incubated for 1 hr at room temperature in 2×10^4 dilution of primary antistreptavidin antibodies (Sigma) in pH 8.0 or pH 10.0 blocking buffer (100 μl/well). The plates were rinsed three times with 200 μl per well blocking buffer at the assay pH, incubated with secondary anti-IgG/alkaline phosphatase conjugate (Sigma) for 1 hr at room temperature, rinsed three times with blocking buffer, and assayed for alkaline phosphatase activity at pH 10.0. Every plate assayed had triplicates for each protein concentration. The data were processed on Mathcad (Mathworks) to determine the equivalent bulk concentration at 50% saturation of binding (EC50) values using a published 4-parameter nonlinear fitting algorithm shown below (Jin et al., J. Mol. Biol. 226: 851-865 (1992)):
(§7) y=a+(d-a)/[1+exp (b(c-x))]
(§8) where a, b, c, and d are the adjustable fitting parameters; x=streptavidin concentration (μg/ml); y=absorbance at 405 nm. Absolute EC50 in μg ml^-1 are given by the value of the parameter c for the best fit of the fitting function to the binding isotherm. Relative EC50 values reported in Table I are EC50 (mutant)/EC50 (WT streptavidin).

[16] = biological target: T1, Streptomyces avidinii core streptavidin variant W120F; test: as above; settings: Absolute EC50, ligand iminobiotin/BSA
Procedure: as §6, §7, §8

[17] = biological target: T2, Streptomyces avidinii core streptavidin variant W108F; test: as above; settings: for EC50: Absolute EC50, ligand iminobiotin/BSA
Procedure: as §6, §7, §8

[18] = biological target: T3, Streptomyces avidinii core streptavidin variant W79F; test: as above; settings: for EC50: Absolute EC50, ligand iminobiotin/BSA
Procedure: as §6, §7, §8

[19] = biological target: T7, Streptomyces avidinii core streptavidin (residues 13-139), wild type (WT) (Streptomyces avidinii, UniProt P22629); test: ELISA concentration-dependent binding to biotin/BSA or iminobiotin/BSA; settings: ligand iminobiotin/BSA, EC50 is protein concentration, read-out: Absolute EC50 (converted)
T7 construct: core streptavidin, defined as residues 13-139 of the naturally occurring protein; made in house
T7 sequence (P22629 37-163): as the sequence (P22629 37-163 W132F) above, with F96W counted along it
Procedure: ELISA Assays. […] 2-Iminobiotin conjugated to bovine serum albumin (iminobiotin/BSA) was synthesized by reacting a twenty-fold molar excess of 2-iminobiotin N-hydroxysuccinimide ester (sigma) with 100 mg BSA in 100 mM NaHCO3, pH 8.3 for 12 hr at 4° C. with end-over-end stirring, followed by dialysis and gel filtration (G-25, Pharmacia) to separate iminobiotin/BSA from unreacted 2-iminobiotin. […] The next day the microwell plates were incubated with 200 μl per well of blocking buffer at pH 8.0 or pH 10.0 (50 mM sodium phosphate, pH 8.0 or 50 mM Na2 CO3, pH 10.0/100 mM NaCl/0.5% (w/v) BSA/0.05% (v/v) Tween-20) for at least 2 hr at room temperature and then incubated in ten-fold serial dilutions of 100 μg/ml WT streptavidin or mutants (100 μl/well) for 2 hr at room temperature, rinsed with blocking buffer at pH 8.0 or pH 10.0 (200 μl/well), and incubated for 1 hr at room temperature in 2×10^4 dilution of primary antistreptavidin antibodies (Sigma) in pH 8.0 or pH 10.0 blocking buffer (100 μl/well). […]
where a, b, c, and d are the adjustable fitting parameters; x=streptavidin concentration (μg/ml); y=absorbance at 405 nm. […]

[20] = biotin-bound ground state relative to WT
[21] = equilibrium biotin binding enthalpy
[22] = heat capacity of biotin binding
[23] = activation barrier of biotin dissociation
[24] = activation enthalpy of biotin dissociation, transition state analysis

T1 sequence (P22629 37-163 W144F): as the sequence (P22629 37-163 W132F) above, with F96W, W108F counted along it

Structure (SMILES): O=C(O)CCCC[C@@H]1SC[C@@H]2NC(=O)N[C@@H]21 [biotin]
- Ka (biotin) [1]: > 10^9
- TΔΔS° (entropy term) ([2]; biotin binding, relative to WT): +2.4 kcal mol^-1
- ΔΔH° ([2]; biotin binding, relative to WT): +5.1 kcal mol^-1
- ΔΔG° [2, 20]: +2.7 kcal mol^-1
- ΔH° [2, 21]: -19.4 kcal/mol
- ΔCp° [2, 22]: -303 cal/molK
- ΔH° [3, 21]: -23.5 kcal/mol
- ΔCp° [3, 22]: -386 cal/molK
- TΔΔS° ([4]; biotin binding, relative to WT): -2.4 kcal/mol
- ΔΔH° ([4]; biotin binding, relative to WT): -1.5 kcal/mol
- ΔΔG° [4, 20]: +0.9 kcal mol^-1
- ΔH° [4, 21]: -25.9 kcal/mol
- ΔCp° [4, 22]: -266 cal/molK
- ΔH° [5, 21]: -24.5 kcal/mol
- ΔCp° [5, 22]: -345 cal/molK
- ΔH° [6, 21]: -12.8 kcal/mol
- ΔCp° [6, 22]: -272 cal/molK
- ΔH° [7, 21]: -18.5 kcal/mol
- ΔCp° [7, 22]: -357 cal/molK
- Ka (biotin) [8]: > 10^9
- TΔSr≠ ([9]; T = 298K, biotin dissociation): 6.6 ± 1.0 kal mol^-1
- ΔGr≠ [9, 23]: 21.9 ± 1.4 kal mol^-1
- ΔΔGr≠ = ΔGr≠(mutant) - ΔGr≠(WT) ([9]; biotin dissociation): -2.5 kal mol^-1
- TΔSr≠ ([10]; T = 298K, biotin dissociation): 13.8 ± 0.9 kal mol^-1
- ΔGr≠ [10, 23]: 22.7 ± 1.3 kal mol^-1
- ΔHr≠ [10, 24]: 36.5 ± 0.9 kcal/mol
- ΔΔGr≠ = ΔGr≠(mutant) - ΔGr≠(WT) ([10]; biotin dissociation): -1.7 kal mol^-1
- TΔSr≠ ([11]; T = 298K, biotin dissociation): 11.6 ± 0.6 kal mol^-1
- ΔGr≠ [11, 23]: 23.3 ± 0.8 kal mol^-1
- ΔHr≠ [11, 24]: 34.9 ± 0.6 kcal/mol
- ΔΔGr≠ = ΔGr≠(mutant) - ΔGr≠(WT) ([11]; biotin dissociation): -1.1 kal mol^-1
- ΔGr≠ (activation barrier for biotin dissociation) [12]: 24.4 kcal/mol
- TΔSr≠ ([12]; T = 298K, biotin dissociation): 7.6 ± 2.1 kal mol^-1
- ΔGr≠ [12, 23]: 24.4 ± 2.4 kal mol^-1
- t1/2 of biotin complex ([12]; biotin dissociation): 35 h
- ΔΔGr≠ = ΔGr≠(mutant) - ΔGr≠(WT) ([12]; biotin dissociation): 0 kal mol^-1

Structure (SMILES): N=C1N[C@H]2[C@H](CS[C@H]2CCCCC(=O)O)N1 [2-iminobiotin]
- Ka for iminobiotin/WT streptavidin [13]: 10^8 M^-1
- affinity for 2-iminobiotin [14]: < 10^3 M^-1
- Absolute EC50 [15]: ≥ 100 µg/mL
- EC50 ([16]; pH 8): 42.2 µM
- EC50 ([16]; pH 10): 16.6 µM
- Kd [17]: 9260 to 9350 µM
- EC50 ([17]; pH 8): 39.5 µM
- EC50 ([17]; pH 10): 0.493 µM
- Kd [18]: 9260 to 9350 µM
- EC50 ([18]; pH 8): 34 µM
- EC50 ([18]; pH 10): 0.575 µM
- EC50 ([19]; pH 8): 0.189 µM
- EC50 ([19]; pH 10): 0.214 µM
